Measured values from article PMC6865181, “Role of L-Type Amino Acid Transporter 1 (LAT1) for the Selective Cytotoxicity of Sesamol in Human Melanoma Cells” (Molecules, 2019).
Marks after values point to notes of the source that are not given here.

What was measured:
[1] = tested on: Vero cells; experiment: Antiproliferative effect, neutral red uptake assay, Vero cells; type: cell-based, African green monkey
Description: (§1) The SK-MEL-2 and Vero cells (at 5 × 10^4 cells/well) were seeded separately into 96-well plates. After the cells were exposed to the tested compounds (200 µL) for 24 h, neutral red (50 µg/mL) (Sigma-Aldrich, St. Louis, MO, USA) was incorporated into the cells for 2 h. The cells were then washed with ice-cold PBS and lysed using 0.33% HCl in isopropanol. The absorbances of neutral red were measured at 540 nm with a reference wavelength of 660 nm using a UV-microplate reader (Perkin Elmer, Waltham, MA, USA). […] The selective index was calculated from the ratio of the IC50 of Vero and SK-MEL-2 cells.

[2] = target: T1, LAT1 (Homo sapiens, UniProt Q01650); experiment: LAT1 function: competitive uptake of L-dopa in SK-MEL-2 cells; type: cell-based; details: for Percent Inhibition of L-Dopa Distribution Volume: competitor (BCH, L-tyrosine, sesamol 1 mM; L-leucine, L-alanine 2 mM; melphalan 0.05 mM); for L-Dopa Distribution Volume in presence of the compound: competitor at the concentration printed in the row
T1 sequence (Q01650 whole entry): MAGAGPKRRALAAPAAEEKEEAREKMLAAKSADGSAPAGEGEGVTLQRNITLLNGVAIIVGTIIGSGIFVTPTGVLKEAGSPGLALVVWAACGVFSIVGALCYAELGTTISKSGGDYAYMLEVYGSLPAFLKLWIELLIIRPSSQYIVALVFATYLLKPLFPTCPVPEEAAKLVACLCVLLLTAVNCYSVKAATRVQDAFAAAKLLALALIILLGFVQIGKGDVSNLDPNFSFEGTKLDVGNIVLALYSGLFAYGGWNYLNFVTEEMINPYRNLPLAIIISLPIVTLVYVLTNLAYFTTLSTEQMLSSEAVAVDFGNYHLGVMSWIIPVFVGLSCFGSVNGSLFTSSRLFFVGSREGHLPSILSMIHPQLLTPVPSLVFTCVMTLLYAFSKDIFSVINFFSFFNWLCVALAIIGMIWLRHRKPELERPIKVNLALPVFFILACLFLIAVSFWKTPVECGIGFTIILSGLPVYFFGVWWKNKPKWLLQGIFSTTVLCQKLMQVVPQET
T1 sequence (P08195 102-630 partner): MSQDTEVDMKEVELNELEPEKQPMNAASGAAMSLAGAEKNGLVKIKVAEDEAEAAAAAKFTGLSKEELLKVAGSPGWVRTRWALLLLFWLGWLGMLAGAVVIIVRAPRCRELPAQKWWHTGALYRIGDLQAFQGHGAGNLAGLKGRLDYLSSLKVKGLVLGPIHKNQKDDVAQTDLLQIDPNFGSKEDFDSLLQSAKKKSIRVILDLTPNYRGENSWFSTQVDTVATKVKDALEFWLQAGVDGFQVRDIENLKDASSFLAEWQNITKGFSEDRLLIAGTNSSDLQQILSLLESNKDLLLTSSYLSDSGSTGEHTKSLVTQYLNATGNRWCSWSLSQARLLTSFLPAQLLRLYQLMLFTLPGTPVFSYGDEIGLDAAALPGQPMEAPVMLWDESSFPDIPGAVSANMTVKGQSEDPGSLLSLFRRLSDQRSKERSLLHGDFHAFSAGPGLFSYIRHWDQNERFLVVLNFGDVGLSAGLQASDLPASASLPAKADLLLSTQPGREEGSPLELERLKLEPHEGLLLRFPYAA
Description: (§2) SK-MEL-2 and Vero cells were seeded separately into 24-well plates at 2 × 10^5 cells/well for 24 h. The media was removed, and the cells pre-incubated with HBSS pH 7.4 for 10 min. The cells were used for the following experiments.
(§3) Sesamol was also investigated for its affinity to LAT1. […] Competitive uptake was performed for 10 min then the cells were washed twice with ice-cold PBS. The L-dopa was solubilized by 0.1 M HCl and the cell lysate (25 µL) was pipetted for protein determination. […] Intracellular and extracellular L-dopa was quantified by the HPLC assay. The L-dopa uptake was represented as the distribution volume of L-dopa in a cell to media ratio (C/M ratio) as calculated in Section 4.3.1.
The analysis was based on a BDS Hypersil C-18 column, (4.6 × 250 mm, 5 µm packing, Thermo Fisher Scientific, Waltham, MA, USA). The column temperature was set at 30 °C with a flow rate of 0.8 mL/min. The mobile phase for sesamol quantification was 70% methanol in water, vs. 20% methanol in water for L-dopa. […] The validated sesamol quantification conducted using sesamol spiked cell lysate with high selectivity and clear separation from the endogenous cell lysate as previously reported. The % bias and % precision was determined within and between days, each was maintained below 6%.

[3] = tested on: SK-MEL-2 cells; experiment: Antiproliferative effect, neutral red uptake assay, SK-MEL-2 cells; type: cell-based, human
Description: as §1

[4] = tested on: LAT1; details: Vero cells, sesamol 0.1 mM, 10 min; for Percent Inhibition of Sesamol Distribution Volume: competitor at the concentration (BCH, L-tyrosine, L-dopa 1 mM; L-leucine, L-alanine 2 mM; melphalan 0.05 mM); for Sesamol Distribution Volume in presence of the compound: competitor at the concentration printed in the row
Description: as §2
(§4) Competitive inhibition of uptake of sesamol was done in both SK-MEL-2 and the Vero cells. […] The cells were washed twice with ice-cold PBS, solubilized in methanol, and centrifuged at 2400× g, at 4 °C for 20 min. The precipitated protein was re-solubilized by 0.1 M NaOH prior to protein determination. The sesamol content was quantified using HPLC assay. The cellular uptake of sesamol was calculated as per the C/M ratio.
(§5) Quantitative analysis of sesamol and L-dopa were performed using a Shimadzu HPLC (LC-2030C-3D) with a UV photodiode array detector (DAD) (Kyoto, Japan). The analysis was based on a BDS Hypersil C-18 column, (4.6 × 250 mm, 5 µm packing, Thermo Fisher Scientific, Waltham, MA, USA). The column temperature was set at 30 °C with a flow rate of 0.8 mL/min. The mobile phase for sesamol quantification was 70% methanol in water, vs. 20% methanol in water for L-dopa. The respective detection wavelength and elution time for sesamol and L-dopa was 297 nm and 280 nm and 4.2 and 4.5 min. The validated sesamol quantification conducted using sesamol spiked cell lysate with high selectivity and clear separation from the endogenous cell lysate as previously reported. The % bias and % precision was determined within and between days, each was maintained below 6%.

[5] = target: T1, LAT1; experiment: cell-based; details: for Percent Inhibition of Sesamol Distribution Volume / Sesamol Distribution Volume in presence of the compound: SK-MEL-2, sesamol 0.1 mM, 10 min; for Percent Inhibition of Sesamol Distribution Volume: competitor at the concentration (BCH, L-tyrosine, L-dopa 1 mM; L-leucine, L-alanine 2 mM; melphalan 0.05 mM); for Sesamol Distribution Volume in presence of the compound: competitor at the concentration printed in the row
Description: as §2, §4, §5

[6] = tested on: LAT1; experiment: LAT1 function: competitive uptake of L-dopa in Vero cells; type: cell-based, African green monkey; details: L-dopa 0.1 mM, 10 min; for Percent Inhibition of L-Dopa Distribution Volume: competitor (BCH, L-tyrosine, sesamol 1 mM; L-leucine, L-alanine 2 mM; melphalan 0.05 mM); for L-Dopa Distribution Volume in presence of the compound: competitor at the concentration printed in the row
Description: as §2, §3, §5

[7] = SK-MEL-2, L-dopa 0.1 mM, 10 min
[8] = SK-MEL-2, read-out: Percent Inhibition of L-Dopa Distribution Volume
[9] = SK-MEL-2, read-out: Percent Inhibition of Sesamol Distribution Volume

Percent Inhibition of L-Dopa Distribution Volume [2, 7] [%]	Percent Inhibition of Sesamol Distribution Volume [5] [%]	SMILES	cytotoxicity compared to untreated cells ([1]; Vero cells, BCH 1 mM)	L-Dopa Distribution Volume in presence of the compound [2, 7] [µL/mg Protein]	cytotoxicity compared to untreated cells ([3]; SK-MEL-2 cells, BCH 1 mM)	Percent Inhibition of Sesamol Distribution Volume [4]	Sesamol Distribution Volume in presence of the compound [4] [µL/mg Protein]	Sesamol Distribution Volume in presence of the compound [5] [µL/mg Protein]	Percent Inhibition of L-Dopa Distribution Volume [6] [%]	L-Dopa Distribution Volume in presence of the compound [6] [µL/mg Protein]	inhibition at 2000 µM [2, 8] [%]	inhibition at 2000 µM [5, 9] [%]	L-Dopa Distribution Volume, control (no competitor) ([2]; SK-MEL-2, L-dopa 0.1 mM, 10 min, 37 °C)	inhibition at 1000 µM [5, 9] [%]	L-Dopa Distribution Volume, control (no competitor) ([6]; 37 °C)	IC50 ([1]; Chlorocebus sabaeus, Vero, 24 h, read-out: IC50 (cell viability)) [µM]	inhibition at 50 µM [2, 8] [%]	IC50 ([3]; Homo sapiens, SK-MEL-2, 24 h, read-out: IC50 (cell viability)) [µM]	Selective Index ([3]; ratio of the IC50 of Vero and SK-MEL-2 cells)	inhibition at 50 µM [5, 9] [%]
82	55	NC1(C(=O)O)CC2CCC1C2 (stereo not drawn) [BCH, 2-Amino-2-norbornanecarboxylic acid]	no cytotoxicity	67.3 ± 14.0	no cytotoxicity	42%	10.4 ± 1.9	10.3 ± 0.9	69	47.9 ± 3.7	–	–	–	–	–	–	–	–	–	–
–	–	C[C@H](N)C(=O)O [L-Alanine, L-alanine]	–	121.2 ± 3.6	–	25%	13.3 ± 2.0	13.1 ± 0.3	35	101.3 ± 4.0	67	44	–	–	–	–	–	–	–	–
–	–	N[C@@H](Cc1ccc(O)c(O)c1)C(=O)O [L-Dopa, L-dopa]	–	–	–	40% (10.8 ± 2.0)^b,c	–	7.4 ± 0.8	–	–	–	–	0% (370.6 ± 13.0)^a µL/mg Protein	68	0% (155.6 ± 17.8)^a µL/mg Protein	–	–	–	–	–
72	75	N[C@@H](Cc1ccc(O)cc1)C(=O)O [L-tyrosine]	–	–	–	41%	–	5.8 ± 0.2	69	48.7 ± 11.0	–	–	–	–	–	–	–	–	–	–
–	–	N[C@@H](Cc1ccc(N(CCCl)CCCl)cc1)C(=O)O [Melphalan, melphalan]	–	196.6 ± 20.3	–	35%	11.7 ± 0.7	9.4 ± 0.7	39	95.5 ± 11.2	–	–	–	–	–	600 ± 300	47	100	6.0	60

SMILES	Percent Inhibition of L-Dopa Distribution Volume [2, 7] [%]	Percent Inhibition of Sesamol Distribution Volume [5] [%]	cytotoxicity compared to untreated cells ([1]; Vero cells, BCH 1 mM)	L-Dopa Distribution Volume in presence of the compound [2, 7] [µL/mg Protein]	cytotoxicity compared to untreated cells ([3]; SK-MEL-2 cells, BCH 1 mM)	Percent Inhibition of Sesamol Distribution Volume [4]	Sesamol Distribution Volume in presence of the compound [4] [µL/mg Protein]	Sesamol Distribution Volume in presence of the compound [5] [µL/mg Protein]	Percent Inhibition of L-Dopa Distribution Volume [6] [%]	L-Dopa Distribution Volume in presence of the compound [6] [µL/mg Protein]	inhibition at 2000 µM [2, 8] [%]	inhibition at 2000 µM [5, 9] [%]	L-Dopa Distribution Volume, control (no competitor) ([2]; SK-MEL-2, L-dopa 0.1 mM, 10 min, 37 °C)	inhibition at 1000 µM [5, 9] [%]	L-Dopa Distribution Volume, control (no competitor) ([6]; 37 °C)	IC50 ([1]; Chlorocebus sabaeus, Vero, 24 h, read-out: IC50 (cell viability)) [µM]	inhibition at 50 µM [2, 8] [%]	IC50 ([3]; Homo sapiens, SK-MEL-2, 24 h, read-out: IC50 (cell viability)) [µM]	Selective Index ([3]; ratio of the IC50 of Vero and SK-MEL-2 cells)	inhibition at 50 µM [5, 9] [%]
CC(C)C[C@H](N)C(=O)O [L-leucine, L-Leucine]	75	50	–	94.1 ± 13.5	–	23%	13.8 ± 1.4	11.7 ± 0.7	75	39.1 ± 2.3	–	–	–	–	–	–	–	–	–	–
